Data on 3 compounds can be found in article PMC6627744, “A Tiny Change Makes a Big Difference in the Anti-Parasitic Activities of an HDAC Inhibitor” (International Journal of Molecular Sciences, 2019).

Assay [1] relates to RH type I strain of T. gondii. As to the kind of experiment: Anti-T. gondii activity in infected HFF monolayers, type I strain. The format is cell-based, Toxoplasma gondii. On the procedure:
(§1) Confluent Human Foreskin Fibroblast (HFF) monolayers were infected with YFP-type I Rh kindly provided by B. Striepen or Tomato-type II Pru kindly provided by Professor N. Blanchard (Toulouse), at 5 × 10^4 parasites per well. They were then centrifuged for 30 s at 250 g and incubated for 30 min in a water bath at 37 °C to allow invasion. The wells were washed three times with PBS to eliminate extracellular parasites, and the drugs were added at concentrations ranging from 0.01 to 3.0 μM. After incubation for 24 h at 37 °C in a humidified atmosphere containing 5% CO2, the cells were fixed in 2.5% methanol-free formaldehyde (Tebu-bio, Le Perray-en-Yvelines, France)/PBS for 30 min at room temperature. Nuclei were stained with Hoechst 33258 (2 µg/mL, Molecular Probes) for 20 min and washed three times with water. The number of infected cells, i.e., cells harboring a parasitophorous vacuole (see supplementary data S3 for an example), and the number of parasites per vacuole were determined using an Olympus ScanR microscope (×20 objective) and ScanR software. The parasitic index in % compared to the control was calculated as follows: [Parasitic index (PI) = ((number of parasite/100 cells in treated wells) × (% of infected macrophage in treated well)/(number of parasite/100 cells in untreated wells) × (% of infected macrophage in untreated wells)) × 100].

Assay [2] has as its system Pru type II strain of T. gondii. As to the kind of experiment: Anti-T. gondii activity in infected HFF monolayers, type II strain. The format is cell-based. Particulars: Toxoplasma gondii, 24 h, read-out: IC50, inhibition of T. gondii type II strain. On the procedure: as §1
The subject of assay [3] is RH type I strain of T. gondii. On the set-up: method as in PMID 29414107. Particulars: cited from earlier work.
Assay [4] deals with Pru type II strain of T. gondii. More on the design: method as in PMID 29414107. Particulars: read-out: IC50, inhibition of T. gondii type II strain; cited from earlier work.
Assay [5] relates to T. gondii. In words: Anti-T. gondii activity in infected HFF monolayers, strain not given. It counts as cell-based, Toxoplasma gondii. On the procedure: as §1
Assay [6] deals with HeLa cell nuclear extract, which contains mainly HDACs 1, 2, 6, and 8. As to the kind of experiment: HDAC inhibition, HeLa nuclear extract (fluorometric HDAC assay kit). The format is biochemical, human. Particulars: HeLa nuclear extracts; ratio of IC50 versus 363. On the procedure:
(§2) The HDACi effect against HeLa nuclear extracts and recombinant proteins were measured using a fluorometric HDAC assay kit (Active Motif, La Hulpe, Belgium) according to the manufacturer’s instructions. Briefly, 30 μL of HeLa nuclear extract (Active Motif, Belgium) or HDAC 1 recombinant protein (Active Motif, Belgium) were mixed with 5 μL of a 10× compound and 10 μL of assay buffer. A positive control, containing trichostatin A at a final concentration of 2 μM, was analyzed for each independent experiment. A fluorogenic substrate (10 μL) was added, and the reaction was allowed to proceed for 30 min at room temperature and then stopped by the addition of a developer containing trichostatin A. The fluorescence was monitored after 30 min at excitation and emission wavelengths of 360 and 460 nm, respectively.

Assay [7] addresses T1, recombinant HDAC1 enzyme (Homo sapiens, UniProt Q13547).
T1 construct: purchased Active Motif
In words: HDAC inhibition, recombinant HDAC1 (fluorometric HDAC assay kit). Particulars: Figure 1B. It counts as biochemical. On the procedure:
as §2

Where two headings read alike, the source gives them in different places.

T1 sequence (Q13547 whole entry): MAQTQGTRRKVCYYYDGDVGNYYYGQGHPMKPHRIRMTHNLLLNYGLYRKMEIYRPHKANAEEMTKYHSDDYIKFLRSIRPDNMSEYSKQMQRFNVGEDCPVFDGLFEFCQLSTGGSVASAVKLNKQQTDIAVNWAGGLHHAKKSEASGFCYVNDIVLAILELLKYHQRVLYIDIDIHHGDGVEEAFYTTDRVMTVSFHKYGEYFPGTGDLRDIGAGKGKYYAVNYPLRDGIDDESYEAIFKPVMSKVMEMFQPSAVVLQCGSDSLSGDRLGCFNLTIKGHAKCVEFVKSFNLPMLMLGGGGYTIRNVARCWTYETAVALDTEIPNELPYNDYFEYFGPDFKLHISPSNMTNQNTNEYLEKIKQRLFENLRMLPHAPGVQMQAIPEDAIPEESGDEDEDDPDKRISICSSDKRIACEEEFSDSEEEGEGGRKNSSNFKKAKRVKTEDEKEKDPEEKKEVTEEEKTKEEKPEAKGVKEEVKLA

Take `COc1cccc(CC(=O)Nc2ccc(C(=O)NO)cc2)c1` [Compound 363, N-hydroxy-4-[2-(3-methoxyphenyl)acetamido]benzamide]: the IC50 in assay [1] (Toxoplasma gondii, type I (RH) strain, HFF, 24 h, read-out: IC50, inhibition of T. gondii type I strain) is 153 nM; in assay [2] it was 853 nM; in assay [3] (type I strain, read-out: IC50, inhibition of T. gondii type I strain) it was 350 nM; in assay [4], 2270 nM. Besides, the “fold higher susceptibility of type I strains than type II strains” value in assay [1] (type I versus type II, this work) is 5.5 fold; in assay [3] (type I versus type II), 6 fold.
Turning to `CCc1nc(N)nc(N)c1-c1ccc(Cl)cc1` [Pyrimethamine, reference compound], the IC50 in assay [5] (Toxoplasma gondii, positive control, strain not stated) was determined as 453 nM.
Take `COc1ccccc1CNC(=O)c1ccc(C(=O)NO)cc1` [Compound D16, 1-N-hydroxy-4-N-[(2-methoxyphenyl)methyl]benzene-1,4-dicarboxamide]: the “fold less efficient in HDACi activity compared to 363” value in assay [6] came to 13 fold. Moreover, in assay [7], the “potency on deacetylase activity of recombinant HDAC1, compared to 363” value is listed as “lower potency”. In assay [5] (even at concentrations higher than 1000 nM, RH type I and Pru type II strains (Figure 1C)), the anti-parasitic activity result was “No anti-parasitic activity”.

In general, IC50 refers to the concentration needed to halve the response being measured.
